Laboratory results from patent US20020042423A1, “METHODS FOR IDENTIFYING COMPOUNDS THAT BIND TO HLA MOLECULES AND USE OF SUCH COMPOUNDS AS HLA-AGONISTS OR ANTAGONISTS” (priority 1998, published 2002).
“Also recorded” adds a separate entry of the source.

Key:
HLA-DR1301 [1] = molecular target: T1, HLA-DR1301 (Homo sapiens, UniProt P01903+P01911, A100E/A169T/K41T/L162R/M171V/P40S/Q125H/Q178H/Q39Y/Q99D/R42S/S66N/T262R/W38E/Y61H); assay: IL-2 secretion functional blocking assay, DR1301-restricted TCR transfectants with MBP 152-165; assay type: cell-based; conditions: for specificity for DR-1301 as compared with DR-1501, by inhibitory effect on IL-2 secretion: DR1301- versus DR1501-restricted TCR transfectants; for inhibition of IL-2 secretion / blocking of antigen presentation by DR-1301: DR1301 and TCR transfectants, MBP peptide, IL-2 in supernatant by ELISA
T1 construct: expressed in transfected cells; host or cells: DAP.3 murine fibroblasts (gift of C. Hurley and R. Rosen-Bronson)
Excerpt: The murine T-cell hybridoma cell line BW58α-β- (a gift of […] and W. Born) was used for transfection of human TCRα and β cDNA isolated from patients with multiple sclerosis (Hastings, 1996). The parental DAP.3 murine fibroblast cell line was used for transfection of DR(α,β1*1301) or DR((α,β*1501) as previously described (a gift of C. Hurley and R. Rosen-Bronson)) ([Hurley, 1995), [Posch, 1995), [Rosen-Bronson, 1991). All cells lines were maintained in DMEM supplemented with 10% fetal calf serum, 50 U/ml penicillin G, 50 μg/ml streptomycin, 1 mM sodium pyruvate, 2 mM glutamine, and 10 mM HEPES buffer (all Gibco/BRL, Gaithersburg, Md.). TCR- and HLA-transfectants were expanded using 1 mg/ml G418 (Gibco/BRL), or 1 mg/ml G418 and 1 mg/ml hygromycin (Calbiochem, San Diego, Calif.), respectively. Cells were washed and resuspended in DMEM complete medium without antibodies. 10^5 cells of the TCR-transfected or untransfected (control) BW58α-β- cells and an equal number of DR-transfected or untransfected (control) Dap.3 cells were incubated with MBP 152-165, or MBP 83-97 and various concentrations of compound, using an U-bottom 96 well plate (Costar). Cell culture supernatants were harvested after […] and stored at -70° C. until use. IL-2 cytokine concentrations (pg/ml) of supernatants were measured by ELISA (Genzyme, Cambridge, Mass.) according to the manufacturer's instructions. The activity of compounds identified by MCDOCK in functional assays that measure inhibition of IL-2 secretion by DR1301 and DR1501-restricted TCR transfectants using compound #105 and several other compounds was evaluated. The results obtained with compound #105 are contained in FIG. 3. In the figure t1 and t2 represent dose-response curves generated in two different experiments. TCR and DR transfectants were incubated for 36 hours with or without compound and the appropriate MBP peptide. IL-2 concentration of the supernatants was then analyzed by ELISA.

HLA-DR1501 = molecular target: T2, HLA-DR1501 (Homo sapiens, UniProt P01903+P01911); assay: IL-2 secretion functional blocking assay, DR1501-restricted TCR transfectants with MBP 83-97; assay type: cell-based; conditions: DR1501 and TCR transfectants, MBP peptide, IL-2 in supernatant by ELISA
T2 construct: expressed in transfected cells; host or cells: DAP.3 murine fibroblasts (gift of C. Hurley and R. Rosen-Bronson)
Excerpt: The murine T-cell hybridoma cell line BW58α-β- (a gift of B. Malissen and W. Born) was used for transfection of human TCRα and β cDNA isolated from patients with multiple sclerosis (Hastings, 1996). The parental DAP.3 murine fibroblast cell line was used for transfection of DR(α,β1*1301) or DR((α,β*1501) as previously described (a gift of C. Hurley and R. Rosen-Bronson)) ([Hurley, 1995), [Posch, 1995), [Rosen-Bronson, 1991). All cells lines were maintained in DMEM supplemented with 10% fetal calf serum, 50 U/ml penicillin G, 50 μg/ml streptomycin, 1 mM sodium pyruvate, 2 mM glutamine, and 10 mM HEPES buffer (all Gibco/BRL, Gaithersburg, Md.). TCR- and HLA-transfectants were expanded using 1 mg/ml G418 (Gibco/BRL), or 1 mg/ml G418 and 1 mg/ml hygromycin (Calbiochem, San Diego, Calif.), respectively.
Cells were washed and resuspended in DMEM complete medium without antibodies. […] IL-2 cytokine concentrations (pg/ml) of supernatants were measured by ELISA (Genzyme, Cambridge, Mass.) according to the manufacturer's instructions.
The activity of compounds identified by MCDOCK in functional assays that measure inhibition of IL-2 secretion by DR1301 and DR1501-restricted TCR transfectants using compound #105 and several other compounds was evaluated. […] IL-2 concentration of the supernatants was then analyzed by ELISA.

HLA-DR1301 [2] = molecular target: T1, HLA-DR1301; assay: Competitive peptide-binding assay with biotinylated MBP peptide; conditions: analog at 6.25 μM to 400 μM, OD at 450 nm
Experimental: 1.5×10^6 HLA-DR-transfected Dap.3 cells were washed in Hanks' Balanced Salt Solution, fixed with 1% paraformaldehyde, washed with RPMI medium and PBS, and resuspended in binding buffer. Biotinylated MBP peptide was added at 200 μg/ml (for MBP 152-165) or 1 μg/ml (for MBP 83-97). BSA was added at 1%. The blocking compound (analogue 6) was added at multiple concentrations ranging from 6.25 μM to 400 μM and incubated overnight in a shaking water bath at 37° C. The samples were then washed and lysed with 100 μl lysis buffer containing 1% nonidet-P40 on ice for 40 min. After centrifugation, the supernatant containing the cell membrane fragments was […] to a 96-well plate pre-coated with the L243 monoclonal antibody that binds to all HLA-DR molecules. The lysis buffer was neutralized with 100 μl n-octyl-β-D-glucopyranoside overnight at 4° C. The samples were then washed and incubated with streptavidin-peroxidase for 1 hour at room temperature. […] OD was measured by an ELISA reader at 450 nm. Competition of the compound for the MBP peptide was calculated according to the following formula: [formula]
This assay evaluates the binding of biotinylated MBP peptide to HLA-DR1301 in the presence of different concentrations of the analog (analog 6 of lead compound). The amounts of MBP peptide bound (label) to the HLA molecule are then quantitated based on the amount of biotin detected.

inhibition of IL-2 secretion / blocking of antigen presentation by DR-1301 (HLA-DR1301 [1]; listed as lead compound #105) | reversal of inhibition of IL-2 production by increasing MBP 152-165 peptide concentration (HLA-DR1301 [1]; MBP 0 to 1200 micrograms/ml, DR1301-restricted TCR transfectants) | inhibition of IL-2 secretion / blocking of antigen presentation by DR-1501 (HLA-DR1501) | specificity for DR-1301 as compared with DR-1501, by inhibitory effect on IL-2 secretion (HLA-DR1301 [1]; listed as #6) | Compound | specificity for DR-1301 as compared with DR-1501, by inhibitory effect on IL-2 secretion (HLA-DR1301 [1]) | inhibition of IL-2 secretion / blocking of antigen presentation by DR-1301 (HLA-DR1301 [1]) | competition with biotinylated MBP peptide for binding to DR1301 (HLA-DR1301 [2])
significant effect | best dose-response curves | weaker inhibition |  | CC(=O)Nc1ccc(NCC(=O)Nn2cnc3ccc(S(=O)(=O)Nc4ccc(NC(C)=O)cc4)cc3c2=O)cc1 [compound #105, 2-{[4-(acetylamino)phenyl]amino}-N-[6-({[4-(acetylamino)phenyl]amino}sulfonyl)-4-oxo(3-hydroquinazolin-3-yl)]acetamide] | most effective in discriminating | strong inhibition | 
 |  |  |  | COc1ccc(NS(=O)(=O)c2ccc3ncn(NS(=O)(=O)c4ccc(I)cc4)c(=O)c3c2)cc1 [analog #14, 3-{[(4-iodophenyl)sulfonyl]amino}-6-{[(4-methoxyphenyl)amino]sulfonyl}-3-hydroquinazolin-4-one] |  | inactive | 
 |  |  | greater specificity for DR1301 than #105 | O=C(CNc1ccc(Cl)cc1Cl)NC1C=Cc2ccc(S(=O)(=O)Nc3ccc(Cl)cc3Cl)cc2C1=O (stereo not drawn) [analog #6, 2-[(2,4-dichlorophenyl)amino]-N-(7-{[(2,4-dichlorophenyl)amino]sulfonyl}-1-oxo(2-2-hydronaphthyl))acetamide] | greater degree of specificity for DR-1301 as compared with DR-1501 |  | specific binding of the compound to HLA-DR1301; also recorded: specifically competes with MBP peptide for binding to purified DR1301 molecules
